How the values were obtained:
[1] = test system: thymocytes; test: Glucocorticoid-induced apoptosis of thymocytes, flow cytometry with propidium iodide (Example 4); format: cell-based, mouse C57BL/6; settings: 6 hours
Procedure: Effects of 3β,7α-dihydroxy-5-androstene-17-one (7α-hydroxy-DHEA) and of 3β,7α-dihydroxy-5α-androstane-17-one (7α-hydroxy-ISOA) on the cellular apoptosis induced by glucocorticoids.
The thymus of a mouse C57BL/6 age four weeks was removed. Culture of the thymocytes was carried out for 6 hours in a RPMI 1640 medium and in the presence or in the absence of the steroid tested. The apoptosis (fragmentation of the DNA) was measured by flow cytometry after marking with propidium iodide. The apoptotic phenomenon was controlled by electrophoresis of the DNA developed by ethidium bromide according to the traditional technique (observation of ladders of 200 pairs of bases).

[2] = In-vitro oxygen radical assay with luminol and hydrogen peroxide (Example 2); format: biochemical; settings: luminol pre-incubated with compound at 100 μg/ml
Procedure: The ability of a compound to scavenge free radicals implicates it as an antioxidizing agent that could help to reduce the natural oxidizing effects of aging. In a first test of whether DHEA or it derivatives have the ability to capture free radicals, an in-vitro oxygen radical assay was devised, The assay was run in quadruplicate to perfect the concentrations of controls as well as test the diluents (phosphate buffered saline (PBS) and DMSO) in which the DHEA and its derivatives were dissolved. The positive controls used were homocysteine and ascorbic acid (Vitamin C).

[3] = test system: human keratinocytes; test: Viability of human keratinocytes in culture, MTT test (Example 5); format: cell-based
Procedure: Effects of 3β,7α-dihydroxy-5-androstene-17-one (7α-hydroxy-DHEA) on the viability of human keratinocytes in culture.
Human keratinocytes were obtained from surgical items and were cultivated in a monolayer until preconfluence. The 7α-hydroxy-DHEA was administered to these cultures at various concentrations in ethanolic solution (10%), each concentration being tested eight times. Controls were carried out with ethanol alone (10%). After twenty-four hours, the viability of the keratinocytes was measured by testing with MTT (3-(4,5-dimethylthiazol-2-yl)-2,5 diphenyl tetrazolium bromide) where the mitochondrial dehydrogenase succinate converts the MTT into blue crystals of formazan soluble in DMSO (Mosmann, J. Immunol. Methods 65: 55-63, 1983). The cellular viability is calculated according to the formula:
Any value greater than 100 indicates a product that encourages cellular viability.

[4] = test system: collagen content of skin; test: Collagen content of neonatal rat skin by hydroxyproline evaluation (Example 3); format: in vivo, neonatal male Sprague-Dawley rats; settings: 0.5% in carrier, twice daily, 30 days, five animals per group
Procedure: (§1) Chemical alterations in the skins of neonatal male Sprague-Dawley rats.
(§2) Collagen and elastin contents were measured on dry, defatted, hair-free skin samples. Collagen contents were assessed through hydroxyproline evaluations in hydrolyzed, 0.1N hot sodium hydroxide extracts. Elastin contents were measured by HPLC evaluation of the contents of thermolysin-produced peptides in digests of the hot sodium hydroxide residue. Controls were both shaven and unshaven, the shaven receiving only the carrier twice daily.
(§3) Elastin contents were increased by all the compounds (28% for DHEA, 30% for the 7 hydroxy and the 7 hydroxy-isoandrosterone). In these studies statistical analysis of variance was significant at an alpha level of 0.01. Similar to the histologic observations, these chemistries are reversible. Collagen and elastin contents returned to near normal levels after cessation of treatment for 30 days.

[5] = test system: human fibroblasts; test: Proliferation of human fibroblasts in culture, cell count (Example 6); format: cell-based; settings: 72 hours of contact, control 190,667 ± 6,766
Procedure: Effects of 3β,7α-dihydroxy-5-androstene-17-one (7α-hydroxy-DHEA) on the proliferation of human fibroblasts in culture.
The cultures of human fibroblasts (person) were seeded on twenty-four site plates at the rate of 50,000 cells per site in a standard culture medium (DMEM, gentamycine, amphotericine B, penicillin, L-glutamine, 10% SVF). The tests were carried out on four series of three sites. After twenty-four hours, the fibroblasts adhered to the support and three series were treated with 7α-hydroxy-DHEA at concentrations of 10^−6 M, 6. 10^−6 M and 10^−7 M. The fourth series only contained the vector (ethanol). The media were renewed daily, and at ninety-six hours (seventy-two hours of test contact with the 7α-hydroxy-DHEA), the fibroblasts were counted on a Malassez cell in the presence of blue trypan.

[6] = test system: elastin content of skin; test: Elastin content of neonatal rat skin by HPLC of thermolysin-produced peptides (Example 3); format: in vivo, neonatal male Sprague-Dawley rats; settings: 0.5% in carrier, twice daily, 30 days, five animals per group
Procedure: as §1, §2, §3

[7] = test system: human keratinocytes; test: Anti-radical effect on UVA-irradiated human keratinocyte suspension, lipid peroxide chemiluminescence (Example 7); format: cell-based; settings: UVA irradiated 30 minutes, 10^−6 M
From the text: The anti-radical effects of 3β,7α-dihydroxy-5-androstene-17-one (7α-hydroxy-DHEA) on a suspension of human keratinocytes.
Keratinocytes from a healthy donor were cultivated to the subconfluent stage in a specific medium (KGM) for the proliferation of keratinocytes. The suspensions obtained were split up, in triplicate, into four series, of which three were irradiated for thirty minutes with a lamp […] UVA so as to speed up the production of free radicals. Among the three irradiated series, one contained Vitamins C and E (0.7%) and was used as a protection reference, one contained 7α-hydroxy-DHEA at 10^−6 M and the last served as a control. Table D below reports on the measurement of the anti-radical effects.
The free radicals produced generate lipoid peroxides which are measured by chemiluminescence (Belghmi et al. J Biolum. Chemilum. 2: 113-119, 1982). The effectiveness of the 7α-hydroxy-DHEA was calculated on the basis of non-irradiated controls and the protection reference.

[8] = test system: rat skin dermal layer; test: Histologic examination of H&E stained rat skin cross sections (Example 1); format: in vivo
From the text: 7 hydroxy DHEA and 7 hydroxy isoandrosterone treated rat skin.
Upon histologic examination of hematoxylin and eosin (H&E) stained rat skin cross sections, a striking physical change was noted. […] This finding was consistent and most pronounced when the parent compound (DHEA) was used on young, healthy rats. However, it also occurred in replicate experiments when the derivatives were used. […] The latter two findings support the toxicologic studies, done concomitantly, which found no significant toxicity when the compounds were used at 0.5% concentration in a suitable carrier applied twice daily (12 hour intervals) for 30 days. […] A subset of experimental animals within each treatment group were left untreated for 30 days. Upon examination, treated skin sections were indistinguishable from the untreated.

[9] = test system: elastin content of the skin; test: Elastin content of rat skin after 30 days of topical treatment (FIG. 1); format: in vivo, Sprague-Dawley male rat; settings: topical 5% concentration of DHEA, similar time period, three animals
From the text: In FIG. 1, S CONTR represents the Shaven Control and US CONTR represents the Unshaven Control. FIG. 1 illustrates that the present invention has the advantageous qualities of enhancing the softness or elasticity of the skin by increasing the endogenous production of elastin in the skin. The present invention is also directed to a method of improving the texture of skin, specifically the physical appearance of the skin by improving the endogenous production of elastin. The method of the present invention employs any of a number of known administrative routes such as oral, IV, subcutaneous, transcutaneous, and topical administration. […]
It is preferable that the topical administration of the composition of the present invention occur repeatedly over a predetermined time period, preferably in the range of about one week to about one month. […] Testing illustrated that the endogenous elastin (measured by microgram (μg) Elastin per milligram (mg) Skin Fat Free Dry weight) of each of the rats to which the administration was applied doubled over that of a control sample and to a sample which was treated with a 5% concentration of DHEA over a similar time period. […] The data of FIG. 1 are significant at an alpha level less than 0.001 as determined by analysis of variance. […]

[10] = steroid 10^−5 M with Dexamethasone 10^−5 M
[11] = steroid 10^−6 M with Dexamethasone 10^−6 M

For C[C@]12CC[C@H](O)CC1=C[C@@H](O)[C@@H]1[C@@H]2CC[C@]2(C)C(=O)CC[C@@H]12 [7α-hydroxy-DHEA, 3β,7α-dihydroxy-5-androstene-17-one], the Apoptotic cells [1, 10] was 48.6%, the Apoptotic cells [1, 11] was 58.8% and the “reduction of light emission from luminol” value [2] was “did not cause any reduction”. For the same compound, the “Viability of the keratinocytes” value ([3]; 5 · 10^−5 M, 24 hours, control = 100) was 111 ± 7%, the “Viability of the keratinocytes” value ([3]; 5 · 10^−6 M, 24 hours, control = 100) was 147 ± 9% and the “Viability of the keratinocytes” value ([3]; 5 · 10^−7 M, 24 hours, control = 100) was 139 ± 3%. The cytotoxicity ([3]; 10^−4 M to 10^−8 M) was “no cytotoxicity was observed”, the “Viability of the keratinocytes” value ([3]; 10^−4 M, 24 hours, control = 100) was 124 ± 10% and the “Viability of the keratinocytes” value ([3]; 10^−5 M, 24 hours, control = 100) was 119 ± 7%. The “Viability of the keratinocytes” value ([3]; 10^−6 M, 24 hours, control = 100) was 154 ± 6%, the “Viability of the keratinocytes” value ([3]; 10^−7 M, 24 hours, control = 100) was 147 ± 5% and the “Viability of the keratinocytes” value ([3]; 10^−8 M, 24 hours, control = 100) was 127 ± 3%. The “effect on viability of human keratinocytes” value ([3]; concentrations between 10^−4 M and 10^−8 M) was “significantly increases the viability”, the collagen increase [4] was 24% and the “Number of Fibroblasts” value ([5]; 5 · 10^−6 M) was 258,667 ± 3,351. The “Number of Fibroblasts” value ([5]; 10^−6 M) was 268,000 ± 27,154, the “Number of Fibroblasts” value ([5]; 10^−7 M) was 230,667 ± 8,511 and the elastin content increase [6] was 30%. The Effectiveness ([7]; calculated from non-irradiated controls and protection reference) was 90% and the Chemiluminescence ([7]; irradiated controls 427,750 ± 137,322) was 44,164 ± 13,303.
For C[C@]12CC[C@H](O)C[C@@H]1C[C@@H](O)[C@@H]1[C@@H]2CC[C@]2(C)C(=O)CC[C@@H]12 [7α-hydroxy-ISOA, 3β,7α-dihydroxy-5α-androstane-17-one], the Apoptotic cells [1, 10] was 46.3%, the Apoptotic cells [1, 11] was 72.0% and the “reduction of light emission from luminol” value [2] was 15%. The collagen increase [4] was 24% and the elastin content increase [6] was 30%.
For C[C@]12CC[C@H](O)CC1=CC[C@@H]1[C@@H]2CC[C@]2(C)C(=O)CC[C@@H]12 [DHEA, 3β-hydroxy-5-androstene-17-one, reference compound], the Apoptotic cells [1, 10] was 51.4%, the Apoptotic cells [1, 11] was 39.0% and the “reduction of light emission from luminol” value [2] was 20%. The “Viability of the keratinocytes” value ([3]; other comparative tests, concentration not given) was 100±5, the “thickness of the dermal layer of skin” value ([8]; 0.5% in carrier, twice daily, 30 days, vs shaven and unshaven untreated controls) was “thickened to nearly twice that of the untreated controls” and the “reversibility of dermal thickening” value ([8]; animals left untreated for 30 days after treatment) was “completely reversible”. For the same compound, the collagen decrease [4] was 16%, the “endogenous elastin (mean)” value [9] was 1.753 microgram (μg) Elastin per milligram (mg) Skin Fat Free Dry weight and the elastin content increase [6] was 28%.

Reference: patent US6777389B1, “Cosmetic or dermatological use of 7-hydroxylated steroids in combination with elastin derived peptides” (Connective Tissue Imagineering LLC, priority 1998, dated 2004)
